These results are taken from patent US8771611B2, “System and methods of log-scale concentration gradients” (Auburn University, priority 2011, dated 2014).

Experiment [1] has as its target matrix metalloproteases-9 (MMP-9) (Homo sapiens, UniProt P14780). Description: on-chip (microfluidic chip) logistic dose response of MMP-9 inhibitors, fluorogenic MMP substrate III. The settings on record: for deviation in the IC50 values between on-chip and off-chip experiment: comparison on-chip vs off-chip; for IC50: on-chip, 22.15 μM substrate, 5 nM enzyme, inhibitor range 0.063 nM~250 nM, four parameter logistic fit, read-out: IC50 (on-chip, from dose response plots). It counts as biochemical.
From the text: Therefore, a concentration range of 0 to 1000×, in logarithmic scale, is able to be generated in a single experiment.
To determine the kinetic parameters, KM and kcat, the initial velocities of the individual reactions are able to be curve-fitted with the Michaelis-Menten equation using the enzyme kinetics module of Sigmaplot software (Systat software Inc.). For IC50 values with standard error, and 95% confidence interval, the four parameter nonlinear-logistic-regression model available to the inhibition data are curve-fitted. The four parameter model is of the form as shown in the equation (1) below.
[formula] Where, IC50 refers to median point of the concentration-response plot; [I] represents the concentration of inhibitor; h is the Hill coefficient or Hill slope, which means the steepness of dose-response plot; %I designates percentage inhibiting potency, including minimum and maximum.
Therefore, by introducing the three concentrations of inhibitor and buffer, meaningful logarithmic concentrations for dose response are generated such as 0, 1, 2.5, 5, 7.5, 10, 25, 50, 75, 100, 250, 500, 750 and 1000× by the device disclosed herein in semi-direct dilution.
An inhibitor concentration range of 0.063 nM˜250 nM (1:4000) is created on the chip in the 14 reactors. Note that, all the 14 reactors are used considering the requirement of a wider concentration range of inhibitors (FIG. 2D), 22.15 μM of substrate and 5 nM of enzyme are used, respectively.
The substrate QXLTM520-Pro-Leu-Gly-Cys-(Me)-His-Ala-D-Arg-Lys-(5-carboxy-fluorescein)-NH2 (AnaSpec Inc), internally quenched peptide matrix of matrix metalloproteinases-9 (MMP-9) is used for the enzyme reaction. This substrate releases fluorescent signals through dissociation of the quencher (QXLTM520) and carboxyfluorescein (FAM), fluorophore, via proteolytic cleavage by enzymatic reaction. […] For establishing a standard curve, reference dye, FAM-Pro-Leu-OH is used. The excitation and emission wavelengths for FAM are 480 nm and 520 nm, respectively. According to the enzyme reaction types, 50 nM, 10 nM, and 5 nM of MMP-9 are separately dissolved into the reaction buffer (TCNBT; 50 mM Tris, 10 mM CaCl2, 150 mM NaCl, 0.05% Brij-35, 0.05% Tween-20 and 0.1% BSA at pH 7.5). For the substrate of MMP, a stock solution is prepared as 100 μM in TCNBT buffer. […] Prepared reagents are stored at −20 ° C. until dilution with TCNBT buffer for experiment.

In experiment [2] the target is T1, MMP-9 enzyme (Homo sapiens, UniProt P14780). Description: off-chip experiment, IC50 of MMP-9 inhibitors. In kind it is biochemical. The settings on record: read-out: IC50 from the off-chip experiment. The source says:
These deviations in the values of IC50 are acceptable, considering enzyme as a biological sample with variable properties.

For experiment [3], the target named is T1, MMP-9 enzyme. The conditions noted are these: from some literature; read-out: reported IC50 values from literature; cited from earlier work.

Read-outs that look alike come from different tables or passages of the source.

matrix metalloproteases-9 (MMP-9), sequence (P14780 94-707): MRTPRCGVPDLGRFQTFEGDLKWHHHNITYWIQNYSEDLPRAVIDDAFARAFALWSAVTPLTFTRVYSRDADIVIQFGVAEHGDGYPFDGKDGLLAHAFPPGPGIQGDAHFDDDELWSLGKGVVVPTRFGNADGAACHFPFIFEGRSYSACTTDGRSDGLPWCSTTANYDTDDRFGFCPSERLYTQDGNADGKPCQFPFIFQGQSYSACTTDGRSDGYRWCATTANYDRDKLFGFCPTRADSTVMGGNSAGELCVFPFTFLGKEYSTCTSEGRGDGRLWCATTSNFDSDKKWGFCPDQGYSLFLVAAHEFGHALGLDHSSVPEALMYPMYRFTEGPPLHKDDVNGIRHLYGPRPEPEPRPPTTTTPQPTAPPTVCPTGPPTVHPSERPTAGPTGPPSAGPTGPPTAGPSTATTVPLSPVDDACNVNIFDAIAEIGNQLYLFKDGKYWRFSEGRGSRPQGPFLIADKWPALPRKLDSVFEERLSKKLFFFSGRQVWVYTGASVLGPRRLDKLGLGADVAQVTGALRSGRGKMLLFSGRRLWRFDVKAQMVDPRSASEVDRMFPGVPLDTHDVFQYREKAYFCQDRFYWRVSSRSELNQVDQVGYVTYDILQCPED
T1 sequence (P14780 94-707): as above

A word on the IC50: it is the midpoint of a concentration-inhibition curve. For the compound `CC(C)(NS(=O)(=O)c1ccc(Oc2ccc(F)cc2)cc1)C(=O)NO` [CP417474], in experiment [1], the “deviation in the IC50 values between on-chip and off-chip experiment” value is on record as 20%; the IC50 came out at 11.9 ± 1 nM. Further, the IC50 at MMP-9 enzyme [2] is 14.9 ± 0.9 nM.
`CNC(=O)[C@H](Cc1ccccc1)NC(=O)[C@H](CC(C)C)[C@H](CSc1cccs1)C(=O)NO` [batimastat]: the values for the half-maximal inhibitory concentration (IC50) (at MMP-9 enzyme [3]; in experiment [1]; on MMP-9 enzyme [2]) were 3 to 4 nM, 4.1 ± 0.2 nM and 3.5 ± 0.3 nM, respectively.
Take `CNC(=O)[C@@H](NC(=O)[C@H](CC(C)C)[C@H](O)C(=O)NO)C(C)(C)C` [marimastat]: the “deviation in the IC50 values between on-chip and off-chip experiment” value in experiment [1] came to 3.2%.
